Patent EP0449955B1, “SYNTHETIC HIV-LIKE PEPTIDES, THEIR COMPOSITIONS AND USES” (CLARITY TECHNOLOGIES INCORPORATED, priority 1988, dated 1996)
Entries after “also recorded” stand apart in the source; their conditions may differ.

Tests used:
SIV/HIV-2 antibodies = test: EIA of HIV-2 gp32 peptide-protein conjugates against macaque serum pools; format: binding; conditions: peptide conjugated via C-terminus to BSA (SMCC), coated at 10 micrograms peptide/ml; 1:101 dilution of SIV+ macaque serum pool; Figure 5
Description: The free peptides or peptide-protein conjugates of Figures 1-13 were initially screened for immunoreactivity by coating each well of polystyrene microtiter EIA plates (Costar, Cambridge, Massachusetts, U.S.A.) with 0.2 ml amounts of concentrations of 5-50 micrograms/ml peptide in Tris buffer, 10 mM, pH 8.0, at 4°C overnight. Peptides or peptide-protein conjugates showing immunoreactivity by EIA were then further diluted for coating to determine the minimal concentrations required that allowed maximal immunoreactivity with antibodies to HIV, and minimal nonspecific reactivity with normal sera. The EIA tests were performed as follows: The coating solution was removed from each well and the wells were blocked at 37°C for 30 minutes with a solution of 50 mM phosphate, 100 mM NaCl, pH 7.4, 1% BSA, 0.5% gelatin. The wells were then aspirated dry with a microtiter plate washer and washed 3 times with a solution of 50 mM phosphate, 100 mM NaCl, .05% Tween 20, (trademark) pH 7.4 (PBST). […] Reactions were stopped with 50 microliters of 4N H₂SO₄, and the color development was quantitated in a Multiscan plate reader at A₄₉₂. […] Most peptides and peptide conjugates were initially screened against a 1:101 dilution of pools of HIV positive or HIV negative sera, and the same serum pool was used to allow quantitative comparison of immunoreactivity of different free peptides or peptide-protein conjugates.
The peptides in Figures 1 and 5 were synthesized as described in Example 1 and conjugated to KLH or BSA as described in Example 2. These peptide-protein conjugates were coated to polystyrene microtiter plates all at a concentration 10 micrograms peptide/ml and evaluated for immunoreactivity as described in Example 3, using a 1:101 dilution of a pool of sera (HIV+/SIV+, respectively) containing antibodies to HIV-1 (Figure 1) or to HIV-2 (Figure 5), as well as pooled serum (HIV-/SIV-, respectively) containing no antibodies to HIV-1 or HIV-2. […]

antibodies to HIV-2 = test: Rapid EIA with latex-immobilized peptide reagents, HIV-2; format: binding; conditions: free peptide passively adsorbed onto carboxylate latex
Description: A 125 microliter volume of 10% latex was added to a 375 microliter volume of deionized water, and mixed with an equal volume (0.5ml) of 1M carbodiimide, pH 4.5. The mixture was shaken gently a room temperature for 1 hour, and then washed 3 times by centrifugation at 9,000 x g for 10 minutes, removal of supernate, and resuspension of the pellet in a 12-14 ml volume of deionized water, pH 4.5. The free peptides at 1 mg/ml concentration (500 micrograms/ml of each peptide 4S36 and 5S70), or the peptide-BSA conjugate of peptides 4S36 and 5S70 at 500 micrograms/ml were added to the final washed activated latex pellet (1 ml volume of peptide containing solution per 125 microliters original volume of latex). […] It was determined that this stock solution of latex coated with peptide-BSA conjugate could be diluted 1:10-1:30 with latex diluent buffer for use in the rapid EIA described below.
Serum specimens were diluted 1:8 for the rapid EIA in a serum diluent buffer consisting of 0.03M Tris, pH 8 containing 0.8% NaCl, 0.05% NaN₃, 0.05% Triton x-100 (trademark). […] The reaction was stopped after 3-4 minutes by adding a drop of 4N H₂SO₄, and the test device could be retained as a permanent record of positive (blue-purple color) or negative (white membrane) until the results were recorded. […]

**Q.** Which results are given for ARLNSWGCAFRQVCHGC [2S25]?
**A.** immunoreactivity with SIV/HIV-2 antibodies (SIV/HIV-2 antibodies): maximally immunoreactive; also recorded: Significant immunoreactivity; also recorded: best immunoreactivity; discrimination of HIV-2+ from HIV-2- serum samples (antibodies to HIV-2): capable of discriminating
